# Measured values as given in patent US20030003050A1 (priority 2001, published 2003).
# How the values were obtained:
# [1] = test system: B6μ, Heμ and CXμ mice; settings: mouse, in vivo, ip, 10 mg/kg
# [2] = test system: B6μ, Heμ and CXμ mice; assay: hot-plate test; assay type: in vivo, mouse; settings: CXμ mice vs B6μ and Heμ littermates; 10 mg/kg intraperitoneal; 20 minutes after injection; plate 52.0°C; p<0.05
smiles,measurement,setting,value
"CN1CC[C@]23c4c5ccc(O)c4O[C@H]2[C@@H](O)C=C[C@H]3[C@H]1C5.Cl [morphine, Morphine hydrochloride]","latency of response to heat stimulus (drug-induced analgesia), tail-flick test",[1],significantly shorter latency than the littermates
same,"latency of response to heat stimulus (first jumping; drug-induced analgesia), hot-plate test",[2],significantly shorter latency than the littermates
